The values below come from ChEMBL document CHEMBL4619827, “Design, Synthesis, and Biological Evaluation of Novel Acylhydrazone Derivatives as Potent Neuraminidase Inhibitors” (ACS Med Chem Lett, 2020).

A short description of the experiment: Inhibition of clostridium perfringens neuraminidase using fluorescent substrate preincubated for 2 mins followed by substrate addition and measured after 1 hr by fluorescence based microplate reader analysis.
In the case of `COc1ccc(Br)cc1OCc1cccc(/C=N/NC(=O)C(=O)NCCCN2CCOCC2)c1`, the IC50 amounted to 7.31 µM.

`O=C(NCCCN1CCOCC1)C(=O)N/N=C/c1cccc(COc2ccccc2Cl)c1` came in with a half-maximal inhibitory concentration (IC50) of 20.4 µM.

`O=C(NCCCN1CCOCC1)C(=O)N/N=C/c1cccc(COc2ccc([N+](=O)[O-])cc2)c1` registered a concentration for half-maximal inhibition (IC50) of 27.8 µM.

`O=C(NCCCN1CCOCC1)C(=O)N/N=C/c1cccc(COc2ccc(Cl)cc2)c1` yielded an IC50 of 6.2 µM.

`COc1ccccc1OCc1cccc(/C=N/NC(=O)C(=O)NCCCN2CCOCC2)c1`: the concentration for half-maximal inhibition (IC50) is 47.8 µM.

Turning to `O=C(NCCCN1CCOCC1)C(=O)N/N=C/c1cccc(COc2ccccc2[N+](=O)[O-])c1`, the IC50 was found to be 86 µM.

`COc1cccc(OCc2cccc(/C=N/NC(=O)C(=O)NCCCN3CCOCC3)c2)c1` showed an IC50 of 13.6 µM.

Regarding `O=C(NCCCN1CCOCC1)C(=O)N/N=C/c1cccc(COc2cc(F)ccc2[N+](=O)[O-])c1`, 17.8 µM corresponded to half-maximal inhibition (IC50).

`O=C(NCCCN1CCOCC1)C(=O)N/N=C/c1cccc(COc2cccc(Cl)c2)c1` registered an IC50 of 22.1 µM.

`CC(=O)Nc1ccc(OCc2cccc(/C=N/NC(=O)C(=O)NCCCN3CCOCC3)c2)cc1` gave a 50% inhibitory concentration (IC50) of 73.4 µM.

In the case of `O=C(NCCCN1CCOCC1)C(=O)N/N=C/c1cccc(COc2ccccc2F)c1`, the half-maximal inhibitory concentration (IC50) worked out at 21.6 µM.

Consider `COc1cc([N+](=O)[O-])ccc1OCc1cccc(/C=N/NC(=O)C(=O)NCCCN2CCOCC2)c1`, for which 28.4 µM corresponded to half-maximal inhibition (IC50).

With `O=C(NCCCN1CCOCC1)C(=O)N/N=C/c1cccc(COc2ccc(F)cc2)c1`, the IC50 came out at 5.29 µM. This IC50 lies about 5.4-fold lower than the previous one.

On to `COc1ccc(OCc2cccc(/C=N/NC(=O)C(=O)NCCCN3CCOCC3)c2)cc1`, for which the IC50 is 0.6 µM.

Regarding `CCC(CC)O[C@@H]1C=C(C(=O)O)C[C@H](N)[C@H]1NC(C)=O` [OSELTAMIVIR CARBOXYLATE], the IC50 was 17 µM. Compared with the last compound, the IC50 is about 28-fold higher.

One may read the IC50 as the point on the concentration scale where inhibition reaches its midpoint. Low readings indicate higher potency, high ones lower potency.
